Legend:
Type in all cases: in vivo
[1] = tested on: giant foxtail (Setaria faberi); experiment: Test A pre-/postemergence plant response
From the text: (§1) Seeds of species selected from barnyardgrass (Echinochloa crus-galli), large crabgrass (Digitaria sanguinalis), giant foxtail (Setaria faberi), blackgrass (Alopecurus myosuroides), canarygrass (Phalaris minor), morningglory (Ipomoea coccinea), pigweed (Amaranthus retroflexus), velvetleaf (Abutilon theophrasti), wheat (Triticum aestivum), and corn (Zea mays) were planted into a blend of loam soil and sand and treated preemergence with a directed soil spray using test chemicals formulated in a non-phytotoxic solvent mixture which included a surfactant. At the same time these species were also treated with postemergence applications of test chemicals formulated in the same manner.
(§2) Plants ranged in height from 2 to 10 cm and were in the one- to two-leaf stage for the postemergence treatment. Treated plants and untreated controls were maintained in a greenhouse for approximately 10 days, after which time all treated plants were compared to untreated controls and visually evaluated for injury. Plant response ratings, summarized in Table A, are based on a 0 to 100 scale where 0 is no effect and 100 is complete control. A dash (-) response means no test results.

[2] = tested on: pigweed (Amaranthus retroflexus); experiment: Test A pre-/postemergence plant response
From the text: as §1, §2

corn (Zea mays) = experiment: Test A pre-/postemergence plant response
From the text: as §1, §2

[3] = tested on: velvetleaf (Abutilon theophrasti); experiment: Test A pre-/postemergence plant response
From the text: as §1, §2

[4] = tested on: wheat (Triticum aestivum); experiment: Test A pre-/postemergence plant response
From the text: as §1, §2

[5] = tested on: large crabgrass (Digitaria sanguinalis); experiment: Test A pre-/postemergence plant response
From the text: as §1, §2

[6] = tested on: morningglory (Ipomoea coccinea); experiment: Test A pre-/postemergence plant response
From the text: as §1, §2

[7] = tested on: barnyardgrass (Echinochloa crus-galli); experiment: Test A pre-/postemergence plant response
From the text: as §1, §2

[8] = tested on: ducksalad (Heteranthera limosa); experiment: Test B flooded paddy test plant response
How it was run: (§3)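 Rice, umbrella sedge, ducksalad and barnyardgrass at 2-leaf stage; pots flooded to 3 cm, compounds applied into paddy water, depth held throughout. Greenhouse 13 to 15 days, then visual rating vs untreated controls on 0–100 scale (0 no effect, 100 complete control); dash means no test result.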

rice (Oryza sativa) = experiment: Test B flooded paddy test plant response
How it was run: as §3

[9] = tested on: umbrella sedge (Cyperus difformis); experiment: Test B flooded paddy test plant response
How it was run: as §3

[10] = tested on: barnyardgrass (Echinochloa crus-galli); experiment: Test B flooded paddy test plant response
How it was run: as §3

[11] = tested on: blackgrass (Alopecurus myosuroides); experiment: Test A pre-/postemergence plant response
From the text: as §1, §2

[12] = tested on: canarygrass (Phalaris minor); experiment: Test A pre-/postemergence plant response
From the text: as §1, §2

[13] = tested on: winter barley (HORVX, Hordeum vulgare); experiment: Test G mixtures of Compound 26 with crop safeners, postemergence plant response; conditions: applied alone, 125 g a.i./ha
Protocol: (§4) This test evaluated the effect of mixtures of Compound 26 with commercial crop safeners cloquintocet-mexyl, mefenpyr-diethyl, and fenchlorazole-ethyl on three plant species. Seeds of winter wheat (TRZAW, Triticum aestivum), winter barley (HORVX, Hordeum vulgare), and wild oat (AVEFA, Avena fatua) (a weed) were planted into a silt loam soil. Plants from these seeds were treated postemergence using test chemicals formulated in a non-phytotoxic solvent mixture that included a surfactant. Plants ranged in height from 6 to 10 cm (2- to 3-leaf stage).
(§5) Plants were grown in a greenhouse using supplemental lighting to maintain a photoperiod of about 14 hours; daytime and nighttime temperatures were about 22-26° C. and 15-19° C., respectively. Balanced fertilizer was applied through the watering system. Treatments consisted of Compound 26 and the above mentioned safeners alone and in combination using a spray volume of 281 L/ha. Each treatment was replicated four times. Treated plants and controls were maintained in a greenhouse for 15 days, after which time all treated plants were compared to controls and visually evaluated. Plant response ratings were calculated as the means of the four replicates based on a scale of 0 to 100 where 0 is no effect and 100 is complete control and are summarized in Tables G1 to G3. Because the safeners alone caused no injury at the rates tested, the expected effect of a mixture of Compound 26 with a safener is the same as the observed effect of Compound 26 alone.
(§6) The highest application rate of each safener was tested alone to confirm the absence of herbicidal activity on the test species when appled postemergence at 125 g ai/ha. Therefore, an extrapolated result of zero for each safener alone at 16, 31, or 62 g ai/ha was used to calculate the mixture response of Compound 26 and these safener application rates.

[14] = tested on: wild oat (AVEFA, Avena fatua); experiment: as above; conditions: applied alone, 125 g a.i./ha
Protocol: as §4, §5, §6

[15] = tested on: winter wheat (TRZAW, Triticum aestivum); experiment: as above; conditions: applied alone, 125 g a.i./ha
Protocol: as §4, §5, §6

[16] = Postemergence, 125 g ai/ha, 0 to 100 scale, 0 no effect, 100 complete control
[17] = Postemergence, 500 g ai/ha, 0 to 100 scale, 0 no effect, 100 complete control
[18] = Preemergence, 125 g ai/ha, 0 to 100 scale (0 no effect, 100 complete control)
[19] = Preemergence, 500 g ai/ha, 0 to 100 scale (0 no effect, 100 complete control)
[20] = Flood (flooded paddy test), 62 g ai/ha, scale 0 to 100, 0 no effect, 100 complete control
[21] = Flood (flooded paddy test), 125 g ai/ha, scale 0 to 100, 0 no effect, 100 complete control
[22] = Flood (flooded paddy test), 250 g ai/ha, scale 0 to 100, 0 no effect, 100 complete control
[23] = Flood, 31 g ai/ha, scale 0 to 100
[24] = Postemergence, 31 g ai/ha, 0 to 100 scale, 0 no effect, 100 complete control
[25] = Preemergence, 31 g ai/ha, 0 to 100 scale, 0 is no effect, 100 is complete control
[26] = Flood, 62 g ai/ha, scale 0 to 100

CCn1ncc(O)c(-c2cn(-c3ccc(Cl)cc3)nc2C)c1=O [Compound 65]
80: Plant response rating, Sedge, Umbrella [9, 22]
0: Plant response rating, Foxtail, Giant [1, 16] | Plant response rating, Foxtail, Giant [1, 18] | Plant response rating, Pigweed [2, 16] | Plant response rating, Pigweed [2, 17] | Plant response rating, Pigweed [2, 18] | Plant response rating, Pigweed [2, 19] | Plant response rating, Corn (corn (Zea mays); [16]) | Plant response rating, Corn (corn (Zea mays); [17]) | Plant response rating, Corn (corn (Zea mays); [18]) | Plant response rating, Corn (corn (Zea mays); [19]) | Plant response rating, Velvetleaf [3, 16] | Plant response rating, Velvetleaf [3, 17] | Plant response rating, Velvetleaf [3, 18] | Plant response rating, Velvetleaf [3, 19] | Plant response rating, Wheat [4, 16] | Plant response rating, Wheat [4, 17] | Plant response rating, Wheat [4, 18] | Plant response rating, Wheat [4, 19] | Plant response rating, Crabgrass, Large [5, 16] | Plant response rating, Crabgrass, Large [5, 18] | Plant response rating, Crabgrass, Large [5, 19] | Plant response rating, Morningglory [6, 16] | Plant response rating, Morningglory [6, 17] | Plant response rating, Morningglory [6, 18] | Plant response rating, Morningglory [6, 19] | Plant response rating, Barnyardgrass [7, 16] | Plant response rating, Barnyardgrass [7, 17] | Plant response rating, Barnyardgrass [7, 18] | Plant response rating, Barnyardgrass [7, 19] | Plant response rating, Ducksalad [8, 20] | Plant response rating, Ducksalad [8, 21] | Plant response rating, Ducksalad [8, 23] | Plant response rating, Rice (rice (Oryza sativa); [20]) | Plant response rating, Rice (rice (Oryza sativa); [21]) | Plant response rating, Rice (rice (Oryza sativa); [23]) | Plant response rating, Sedge, Umbrella [9, 20] | Plant response rating, Sedge, Umbrella [9, 21] | Plant response rating, Sedge, Umbrella [9, 23] | Plant response rating, Barnyardgrass [10, 20] | Plant response rating, Barnyardgrass [10, 21] | Plant response rating, Barnyardgrass [10, 22] | Plant response rating, Barnyardgrass [10, 23]
15: Plant response rating, Rice (rice (Oryza sativa); [22])
40: Plant response rating, Ducksalad [8, 22]
90: Plant response rating, Foxtail, Giant [1, 19]
20: Plant response rating, Foxtail, Giant [1, 17] | Plant response rating, Crabgrass, Large [5, 17]

CCc1cc(-c2ccc(Cl)cc2)nn1-c1c(O)c(C)nn(C)c1=O [Compound 86]
30: Plant response rating, Corn (corn (Zea mays); [24]) | Plant response rating, Ducksalad [8, 26] | Plant response rating, Rice (rice (Oryza sativa); [26])
70: Plant response rating, Foxtail, Giant [1, 24] | Plant response rating, Crabgrass, Large [5, 24]
50: Plant response rating, Blackgrass [11, 25] | Plant response rating, Wheat [4, 16] | Plant response rating, Barnyardgrass [7, 25]
90: Plant response rating, Blackgrass [11, 18] | Plant response rating, Foxtail, Giant [1, 16] | Plant response rating, Corn (corn (Zea mays); [16]) | Plant response rating, Crabgrass, Large [5, 18]
20: Plant response rating, Wheat [4, 24]
35: Plant response rating, Rice (rice (Oryza sativa); [22])
10: Plant response rating, Foxtail, Giant [1, 25] | Plant response rating, Crabgrass, Large [5, 25]
40: Plant response rating, Corn (corn (Zea mays); [18]) | Plant response rating, Wheat [4, 18] | Plant response rating, Barnyardgrass [10, 22]
80: Plant response rating, Blackgrass [11, 24]
55: Plant response rating, Sedge, Umbrella [9, 22]
65: Plant response rating, Ducksalad [8, 22]
0: Plant response rating, Pigweed [2, 24] | Plant response rating, Pigweed [2, 16] | Plant response rating, Pigweed [2, 25] | Plant response rating, Pigweed [2, 18] | Plant response rating, Corn (corn (Zea mays); [25]) | Plant response rating, Wheat [4, 25] | Plant response rating, Sedge, Umbrella [9, 26] | Plant response rating, Barnyardgrass [10, 26]
100: Plant response rating, Blackgrass [11, 16] | Plant response rating, Foxtail, Giant [1, 18] | Plant response rating, Canarygrass [12, 16] | Plant response rating, Canarygrass [12, 18] | Plant response rating, Crabgrass, Large [5, 16] | Plant response rating, Barnyardgrass [7, 24] | Plant response rating, Barnyardgrass [7, 16] | Plant response rating, Barnyardgrass [7, 18]

CC(C)Cc1cc(-c2ccc(Cl)cc2)nn1-c1c(O)cnn(C)c1=O [Compound 92]
50: Plant response rating, Blackgrass [11, 16] | Plant response rating, Foxtail, Giant [1, 18]
80: Plant response rating, Barnyardgrass [7, 16]
10: Plant response rating, Foxtail, Giant [1, 24] | Plant response rating, Canarygrass [12, 18] | Plant response rating, Crabgrass, Large [5, 16]
30: Plant response rating, Canarygrass [12, 16] | Plant response rating, Wheat [4, 16]
20: Plant response rating, Corn (corn (Zea mays); [16]) | Plant response rating, Corn (corn (Zea mays); [18]) | Plant response rating, Crabgrass, Large [5, 18] | Plant response rating, Barnyardgrass [7, 18]
60: Plant response rating, Foxtail, Giant [1, 16]
0: Plant response rating, Blackgrass [11, 24] | Plant response rating, Blackgrass [11, 25] | Plant response rating, Blackgrass [11, 18] | Plant response rating, Foxtail, Giant [1, 25] | Plant response rating, Pigweed [2, 24] | Plant response rating, Pigweed [2, 16] | Plant response rating, Pigweed [2, 25] | Plant response rating, Pigweed [2, 18] | Plant response rating, Corn (corn (Zea mays); [24]) | Plant response rating, Corn (corn (Zea mays); [25]) | Plant response rating, Canarygrass [12, 24] | Plant response rating, Canarygrass [12, 25] | Plant response rating, Wheat [4, 24] | Plant response rating, Wheat [4, 25] | Plant response rating, Wheat [4, 18] | Plant response rating, Crabgrass, Large [5, 24] | Plant response rating, Crabgrass, Large [5, 25] | Plant response rating, Barnyardgrass [7, 24] | Plant response rating, Barnyardgrass [7, 25]

CCOC(=O)c1nc(C(Cl)(Cl)Cl)n(-c2ccc(Cl)cc2Cl)n1 [fenchlorazole-ethyl]
0: HORVX Obsd. (observed effect) plant response rating, scale 0 to 100 [13] | AVEFA Obsd. (observed effect) plant response rating, scale 0 to 100 [14] | TRZAW Obsd. (observed effect) plant response rating, scale 0 to 100 [15]

CCOC(=O)C1=NN(c2ccc(Cl)cc2Cl)C(C)(C(=O)OCC)C1 (stereo not shown) [mefenpyr-diethyl]
0: HORVX Obsd. (observed effect) plant response rating, scale 0 to 100 [13] | AVEFA Obsd. (observed effect) plant response rating, scale 0 to 100 [14] | TRZAW Obsd. (observed effect) plant response rating, scale 0 to 100 [15]

Source: patent US20100267561A1, “HERBICIDAL PYRIDAZINONE DERIVATIVES” (priority 2007, published 2010)
